Assay results reported in PMC9810167, “Novel dual LSD1/HDAC6 inhibitor for the treatment of cancer” (PLOS ONE, 2023).
Read-outs that look alike come from different tables or passages of the source.

Key:
[1] = tested on: HEL 92.1.7; assay: Cell proliferation assay (Alamar Blue); assay type: cell-based, human; details: for EC50: Homo sapiens
Experimental: (§1) Cells were seeded in NUNC 96-well tissue culture plates (Life Technologies) in […] culture medium and incubated at 37°C/ 5% CO2 to adhere to plastic for 18–24 h. […] One set of plates (designated for the 144 h read out) were centrifuged at low speed for 30 seconds, and respective compounds were replenished in fresh media and incubated for another 68–72 h at 37°C/ 5% CO2. […] The inhibition curve was then fitted by plotting % inhibition against log concentration in GraphPad Prism 5.0 (GraphPad Software, Inc.) and the GI50 value of compound was determined. Data are representative of at least two independent experiments.

[2] = tested on: Colo-289; assay: Cell proliferation assay (Alamar Blue); assay type: cell-based; details: Colo-289, Melanoma, 144 h
Experimental: as §1

[3] = tested on: G362; assay: Cell proliferation assay (Alamar Blue); assay type: cell-based; details: G362, Melanoma, 144 h
Experimental: as §1

[4] = tested on: H1341; assay: Cell proliferation assay (Alamar Blue); assay type: cell-based; details: H1341, SCLC, 144 h
Experimental: as §1

[5] = tested on: H2171; assay: Cell proliferation assay (Alamar Blue); assay type: cell-based; details: Homo sapiens, NCI-H2171; H2171, SCLC, 144 h
Experimental: as §1

[6] = tested on: H510A; assay: Cell proliferation assay (Alamar Blue); assay type: cell-based; details: Homo sapiens, NCI-H510A, SCLC, 144 h
Experimental: as §1

[7] = tested on: HL60-MX1; assay: Cell proliferation assay (Alamar Blue); assay type: cell-based; details: HL60-MX1, Leukemia, 144 h
Experimental: as §1

[8] = tested on: HL60; assay: Cell proliferation assay (Alamar Blue); assay type: cell-based; details: Homo sapiens, HL-60; HL60, Leukemia, 144 h
Experimental: as §1

[9] = tested on: HT144; assay: Cell proliferation assay (Alamar Blue); assay type: cell-based; details: Homo sapiens, HT-144; HT144, Melanoma, 144 h
Experimental: as §1

[10] = tested on: Hep-G2; assay: Cell proliferation assay (Alamar Blue); assay type: cell-based; details: Homo sapiens, HepG2; Hep-G2, Hepatocellular Carcinoma, 144 h
Experimental: as §1

[11] = tested on: Hep3B2; assay: Cell proliferation assay (Alamar Blue); assay type: cell-based; details: Homo sapiens, Hep3B; Hep3B2, Hepatocellular Carcinoma, 144 h
Experimental: as §1

[12] = tested on: MM1.R; assay: Cell proliferation assay (Alamar Blue); assay type: cell-based; details: MM.1R, Multiple Myeloma, 144 h
Experimental: as §1

[13] = tested on: OCI-AML3; assay: Cell proliferation assay (Alamar Blue); assay type: cell-based; details: Homo sapiens, OCI-AML-3; OCI-AML3, Leukemia, 144 h
Experimental: as §1

[14] = tested on: RPMI-7591; assay: Cell proliferation assay (Alamar Blue); assay type: cell-based; details: RPMI-7591, Melanoma, 144 h
Experimental: as §1

[15] = tested on: SKMeI2; assay: Cell proliferation assay (Alamar Blue); assay type: cell-based; details: SKMeI2, Melanoma, 144 h
Experimental: as §1

[16] = tested on: THP-1; assay: Cell proliferation assay (Alamar Blue); assay type: cell-based; details: Homo sapiens; THP-1, Leukemia, 144 h
Experimental: as §1

[17] = tested on: WM-266-4; assay: Cell proliferation assay (Alamar Blue); assay type: cell-based; details: Homo sapiens; WM-266-4, Melanoma, 144 h
Experimental: as §1

[18] = tested on: panel of non-small lung cancer, melanoma, and hepatocellular carcinoma tumor cell lines; assay: Cell proliferation assay, solid tumor cell line panel; assay type: cell-based; details: 144 h; 6 days; range over cell lines; read-out: EC50 values across solid tumor panel
Experimental: as §1

[19] = tested on: HEL92.1.7 xenograft tumors; assay: HEL92.1.7 erythroleukaemia xenograft model; assay type: in vivo; details: for % tumor growth inhibition (TGI): PO, QD, 14 days
[20] = tested on: MM1.S xenograft; assay: MM1.S multiple myeloma xenograft model; assay type: in vivo; details: for TGI: 13 d
[21] = tested on: CT-26 syngeneic tumors; assay: CT-26 mouse colon cancer syngeneic model; assay type: in vivo, BALB/c mice; details: 14 d
Experimental: For CT-26 syngeneic mouse colon cancer model female BALB/c (6–8 weeks old, Vivo Biotech, India) were used. 1x10^6 CT26 tumor cells in 100 μL of serum-free medium mixed with 1:1 ratio of matrigel were injected s.c. into the right flank of mice. […] During the experiment, body weights were measured 2–3 times a week and tumor volume was measured using callipers every other day in three dimensions. Tumor volume was calculated from the pi-based ellipsoid volume formula π/6*length*width*height. Mice were culled when the tumor volume reached either the ethical limit of 2000 mm^3 or if the tumor was ulcerated. The percentage change in tumor volume from baseline was used to assess the response to treatment. Tumor measurements were performed in a blinded manner throughout the study.

## O=C(NO)c1ccc(CCCN2CCC(CN[C@H]3C[C@@H]3c3ccccc3)CC2)cc1 (relative stereo) [JBI-097]
[1]; HEL92.1.7, 6 days of incubation, up to 10 μM
  cell growth inhibition reached (plateau): 100%
[1]; HEL 92.1.7, read-out: anti-proliferative EC50, HEL92.1.7, 3 days (72 h) of incubation
  EC50: 0.722 µM
[1]; HEL 92.1.7, Leukemia, 144 h, read-out: EC50, 144hr
  EC50: 0.049 µM
[2]
  EC50: 2.19 µM
[3]
  EC50: 7.64 µM
[4]
  EC50: 3.26 µM
[5]
  EC50: 2.7 µM
[6]
  EC50: 1.06 µM
[7]
  EC50: 0.034 µM
[8]
  EC50: 1.5 µM
[9]
  EC50: 3.14 µM
[10]
  EC50: 1.1 µM
[11]
  EC50: 1.3 µM
[12]
  EC50: 0.029 µM
[13]
  EC50: 0.03 µM
[14]
  EC50: 8.09 µM
[15]
  EC50: 1.83 µM
[16]
  EC50: 0.226 µM
[17]
  EC50: 6.83 µM
[18]
  EC50: 1.06 to 8.09 µM
[19]; 25 mg/kg
  % tumor growth inhibition (TGI): 76%
[19]; 50 mg/kg group, observed in 2 animals
  body weight loss: 5–10%
[19]; 50 mg/kg
  % tumor growth inhibition (TGI): 91%
[20]; JBI-097 12.5 mg/kg PO in combination with BTZ (0.5 mg/kg IP BIW)
  TGI: 82%
[20]; JBI-097 12.5 mg/kg PO in combination with Pomalidomide
  tolerability: well tolerated
[20]; JBI-097 12.5 mg/kg PO in combination with pomalidomide (2.5 mg/kg PO 5x/week)
  TGI: 60%
[20]; single agent, 12.5 mg/Kg PO QD
  TGI: 23%
[21]; JBI-097 20 mg/kg PO in combination with anti-PD-L1 100 μg/animal IP Q4D
  TGI: 76%
[21]; JBI-097 alone, 20 mg/kg PO, 5 days on 2 days off
  TGI: 50%
